Measurements taken from ChEMBL document CHEMBL6127136, “Discovery of 1-(Phenylsulfonyl)-1,2,3,4-tetrahydroquinoline Derivative as Orally Bioavailable and Safe RORγt Inverse Agonists for Potential Treatment of Rheumatoid Arthritis” (J Med Chem, 2024).
Activity calls are given as the source filed them. The calls are words filed in the database; no cut-off is given here.

Assays:
[1] = AUC (0 to t) in male DBA/1 mouse at 5 mg/kg, iv measured after 24 hrs by HPLC analysis; type: ADME, organism-based; details: in vivo
Mus musculus [2] = assay: Antiinflammatory activity against imiquimod-induced psoriasis-like skin inflammation in Balb/c mouse model assessed as reduction in IL-17A level in peripheral blood preadministered with IMQ for 3 days followed by intragastric compound administration from day 4 and measured on day 13 by ELISA; type: functional, organism-based; details: dose 5-15 mg/kg, route ig, time 10.0 day
Mus musculus [3] = assay: Antiinflammatory activity against imiquimod-induced psoriasis-like skin inflammation in Balb/c mouse model assessed as reduction in inflammatory cell infiltration in skin at 15 mg/kg, IG preadministered with IMQ for 3 days followed by compound administration from day 4 and measured on day 14 by H and E staining based analysis; type: functional, organism-based; details: time 11.0 day
Mus musculus [4] = assay: Antiinflammatory activity against imiquimod-induced psoriasis-like skin inflammation in Balb/c mouse model assessed as decrease in IL-17F expression in skin preadministered with IMQ for 3 days followed by intragastric compound administration from day 4 and measured on day 14 by immunohistochemical analysis; type: functional, organism-based; details: dose 5-15 mg/kg, route ig, time 11.0 day
Mus musculus [5] = assay: Antiinflammatory activity against imiquimod-induced psoriasis-like skin inflammation in Balb/c mouse model assessed as reduction in total psoriasis area preadministered with IMQ for 3 days followed by intragastric compound administration from day 4 and measured on day 14; type: functional, organism-based; details: dose 10-15 mg/kg, route ig, time 11.0 day
[6] = AUC (0 to infinity) in male DBA/1 mouse at 5 mg/kg, iv measured after 24 hrs by HPLC analysis; type: ADME, organism-based; details: in vivo
Mus musculus [7] = assay: Antiinflammatory activity against imiquimod-induced psoriasis-like skin inflammation in Balb/c mouse model assessed as reduction in IL-17F level in peripheral blood preadministered with IMQ for 3 days followed by intragastric compound administration from day 4 and measured on day 13 by ELISA; type: functional, organism-based; details: dose 5-15 mg/kg, route ig, time 10.0 day
[8] = Half-life in male DBA/1 mouse at 5 mg/kg, iv measured after 24 hrs by HPLC analysis; type: ADME, organism-based; details: in vivo
Mus musculus [9] = assay: Antiinflammatory activity against imiquimod-induced psoriasis-like skin inflammation in Balb/c mouse model assessed as decrease in dermal telangiectasia at 15 mg/kg, IG preadministered with IMQ for 3 days followed by compound administration from day 4 and measured on day 14 by H and E staining based analysis; type: functional, organism-based; details: time 11.0 day
HeLa = assay: Antiproliferative activity against human HeLa cells assessed as inhibition of colony formation at 2 to 8 uM incubated for 7 days by crystal violet staining based light microscopic analysis; type: toxicity, cell-based; details: 168 h, dose 2-8 µM, time 7 day
Mus musculus [10] = assay: Antiinflammatory activity against imiquimod-induced psoriasis-like skin inflammation in Balb/c mouse model assessed as reduction in mononuclear cell infiltration in skin at 15 mg/kg, IG preadministered with IMQ for 3 days followed by compound administration from day 4 and measured on day 14 by H and E staining based analysis; type: functional, organism-based; details: time 11.0 day
[11] = Oral bioavailability in male DBA/1 mouse at 20 mg/kg measured after 24 hrs by HPLC analysis; type: ADME, organism-based; details: in vivo
[12] = Clearance in male DBA/1 mouse at 5 mg/kg, iv measured after 24 hrs by HPLC analysis; type: ADME, organism-based; details: in vivo
Mus musculus [13] = assay: Antiinflammatory activity against imiquimod-induced psoriasis-like skin inflammation in Balb/c mouse model assessed as decrease in IL-17A expression in skin preadministered with IMQ for 3 days followed by intragastric compound administration from day 4 and measured on day 14 by immunohistochemical analysis; type: functional, organism-based; details: dose 5-15 mg/kg, route ig, time 11.0 day
[14] = Cmax in male DBA/1 mouse at 20 mg/kg, po measured after 24 hrs by HPLC analysis; type: ADME, organism-based; details: in vivo
[15] = Cmax in male DBA/1 mouse at 5 mg/kg, iv measured after 24 hrs by HPLC analysis; type: ADME, organism-based; details: in vivo
[16] = biological target: T1, Nuclear receptor ROR-gamma (Homo sapiens, UniProt P51449); assay: Inverse agonist activity at GAL4 DNA-binding domain fused RORgamma (unknown origin) transfected in HEK293T cells co-transfected with GAL4-promoter driven luciferase reporter gene assessed as inhibition of RORgammat transcription incubated for 18 to 20 hrs by plate reader analysis; type: cell-based
T1 sequence (P51449 whole entry): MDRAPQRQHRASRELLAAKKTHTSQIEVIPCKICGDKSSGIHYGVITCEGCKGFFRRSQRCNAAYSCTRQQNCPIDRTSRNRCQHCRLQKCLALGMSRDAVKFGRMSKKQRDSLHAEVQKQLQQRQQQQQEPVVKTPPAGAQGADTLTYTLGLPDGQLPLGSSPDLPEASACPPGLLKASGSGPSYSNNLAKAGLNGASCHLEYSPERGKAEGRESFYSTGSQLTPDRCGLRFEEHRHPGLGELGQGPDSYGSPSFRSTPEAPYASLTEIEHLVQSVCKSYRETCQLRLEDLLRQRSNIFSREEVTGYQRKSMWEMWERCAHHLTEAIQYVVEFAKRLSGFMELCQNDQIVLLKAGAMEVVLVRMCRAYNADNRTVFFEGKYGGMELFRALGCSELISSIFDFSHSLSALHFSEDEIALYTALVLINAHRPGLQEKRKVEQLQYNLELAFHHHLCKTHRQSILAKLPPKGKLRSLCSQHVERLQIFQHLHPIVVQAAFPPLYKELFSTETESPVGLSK

[17] = Toxicity in imiquimod-induced psoriasis-like skin inflammation Balb/c mouse model assessed as change in body weight at 5 to 15 mg/kg, IG preadministered with IMQ for 3 days followed by compound administration from day 4 and measured on day 14; type: organism-based; details: in vivo, po, 264 h, dose 5-15 mg/kg, time 11 day
Mus musculus [18] = assay: Antiinflammatory activity against imiquimod-induced psoriasis-like skin inflammation in Balb/c mouse model assessed as reduction in total psoriasis severity index preadministered with IMQ for 3 days followed by intragastric compound administration from day 4 and measured on day 14; type: functional, organism-based; details: dose 10-15 mg/kg, route ig, time 11.0 day
[19] = Tmax in male DBA/1 mouse at 5 mg/kg, iv measured after 24 hrs by HPLC analysis; type: ADME, organism-based; details: in vivo
Mus musculus [20] = assay: Antiinflammatory activity against imiquimod-induced psoriasis-like skin inflammation in Balb/c mouse model assessed as decrease in IL-17F expression in skin at 15 mg/kg, IG preadministered with IMQ for 3 days followed by compound administration from day 4 and measured on day 14 by immunohistochemical analysis; type: functional, organism-based; details: time 11.0 day
Mus musculus [21] = assay: Antiinflammatory activity against imiquimod-induced psoriasis-like skin inflammation in Balb/c mouse model assessed as decrease in IL-23 expression in skin preadministered with IMQ for 3 days followed by intragastric compound administration from day 4 and measured on day 14 by immunohistochemical analysis; type: functional, organism-based; details: dose 5-15 mg/kg, route ig, time 11.0 day
Mus musculus [22] = assay: Antiinflammatory activity against imiquimod-induced psoriasis-like skin inflammation in Balb/c mouse model assessed as decrease in IL-23 expression in skin at 15 mg/kg, IG preadministered with IMQ for 3 days followed by compound administration from day 4 and measured on day 14 by immunohistochemical analysis; type: functional, organism-based; details: time 11.0 day
Mus musculus [23] = assay: Antiinflammatory activity against imiquimod-induced psoriasis-like skin inflammation in Balb/c mouse model assessed as attenuation of skin layer thickening at 15 mg/kg, IG preadministered with IMQ for 3 days followed by compound administration from day 4 and measured on day 14 by H and E staining based analysis; type: functional, organism-based; details: time 11.0 day
[24] = AUC (0 to t) in male DBA/1 mouse at 20 mg/kg, po measured after 24 hrs by HPLC analysis; type: ADME, organism-based; details: in vivo
Mus musculus [25] = assay: Antiinflammatory activity against imiquimod-induced psoriasis-like skin inflammation in Balb/c mouse model assessed as reduction in IL-23 level in peripheral blood preadministered with IMQ for 3 days followed by intragastric compound administration from day 4 and measured on day 13 by ELISA; type: functional, organism-based; details: dose 5-15 mg/kg, route ig, time 10.0 day
HUVEC = assay: Antiproliferative activity against HUVEC cells assessed as inhibition of colony formation at 2 to 8 uM incubated for 7 days by crystal violet staining based light microscopic analysis; type: toxicity, cell-based; details: human, 168 h, dose 2-8 µM, time 7 day
[26] = AUC (0 to infinity) in male DBA/1 mouse at 20 mg/kg, po measured after 24 hrs by HPLC analysis; type: ADME, organism-based; details: in vivo
[27] = Tmax in male DBA/1 mouse at 20 mg/kg, po measured after 24 hrs by HPLC analysis; type: ADME, organism-based; details: in vivo
[28] = Half-life in male DBA/1 mouse at 20 mg/kg, po measured after 24 hrs by HPLC analysis; type: ADME, organism-based; details: in vivo
[29] = biological target: T1, Nuclear receptor ROR-gamma; assay: Inverse agonist activity at N-terminal 6-His-tagged/APC-labeled human RORgammat LBD extracted from Escherichia coli assessed as inhibition of europium-labeled SRC-1 recruitment incubated for 3 hrs by TR-FRET analysis
Mus musculus [30] = assay: Antiinflammatory activity against imiquimod-induced psoriasis-like skin inflammation in Balb/c mouse model assessed as decrease in IL-17A expression in skin at 15 mg/kg, IG preadministered with IMQ for 3 days followed by compound administration from day 4 and measured on day 14 by immunohistochemical analysis; type: functional, organism-based; details: time 11.0 day

SMILES: CCC1CCc2cc(C(C)C)ccc2N1S(=O)(=O)c1ccc(OCC2CCOCC2)c(CO)c1 (racemic)
- AUC(0-t) at 24 h [1]: 995 ng·h/mL
- Activity (Mus musculus [2]): Dose-Dependent Effect
- Activity (Mus musculus [3]): Active
- Activity (Mus musculus [4]): Dose-Dependent Effect
- Activity (Mus musculus [5]): Dose-Dependent Effect
- AUC(0-inf) [6]: 1020 ng·h/mL
- Activity (Mus musculus [7]): Dose-Dependent Effect
- half-life [8]: 3.87 h
- Activity (Mus musculus [9]): Active
- Activity (HeLa): Non-Toxic
- Activity (Mus musculus [10]): Active
- bioavailability [11]: 48.1%
- clearance [12]: 81.9 mL/min/kg
- Activity (Mus musculus [13]): Dose-Dependent Effect
- Cmax [14]: 485 ng/mL
- Cmax [15]: 1210 ng/mL
- IC50 [16]: 21 nM
- Activity [17]: Non-Toxic
- Activity (Mus musculus [18]): Dose-Dependent Effect
- Tmax [19]: 4.98 min
- Activity (Mus musculus [20]): Active
- Activity (Mus musculus [21]): Dose-Dependent Effect
- Activity (Mus musculus [22]): Active
- Activity (Mus musculus [23]): Active
- AUC(0-t) at 24 h [24]: 1890 ng·h/mL
- Activity (Mus musculus [25]): Dose-Dependent Effect
- Activity (HUVEC): Non-Toxic
- AUC(0-inf) [26]: 1960 ng·h/mL
- Tmax [27]: 0.5 h
- half-life [28]: 4.67 h
- IC50 [29]: 3.5 nM
- Activity (Mus musculus [30]): Active
